From patent US20230087342A1, “AZEPANE DERIVATIVE” (Nippon Chemiphar Co., Ltd., priority 2019, published 2023)

system: not listed separately; assay: Metabolic stability test; format: in vitro ADME; conditions: human liver microsomes, 0 to 30 minutes; a hydrochloride was used
Description: To determine the unchanged product-residual ratio of the test compound in the reaction sample, human liver microsomes and the test compound were reacted for a predetermined time (0 to 30 minutes). The unchanged product-residual ratio at a reaction time of 0 hours was considered 100%, the residual ratio after incubation was log-linear plotted with respect to the time, a regression line (y=100 e^−kt, k=slope of the line: elimination rate constant) was determined, and the metabolic clearance CLint (mL/min/kg) was calculated using the following formula.
CLint*=k (−min)×45 (mg MS protein/g liver)×21 (g liver/kg)/MS protein (mg MS protein/mL)
*: Yamazaki S.; Skaptason J.; Romero D, Vekich S.; Jones HM.; Tan W.; Wilner KD.; Koudriakova T. Drug Metab. Dispos. 2011 March; 39 (3): 383-393.

| SMILES | CLint scaled |
| --- | --- |
| O=C(Cc1ncccn1)N1CC[C@]23CCN(CC4CC4)[C@H](Cc4ccc(O)cc42)[C@]3(O)CC1 [Example 20, 1-((5aS,6R,11bR)-14-(cyclopropylmethyl)-5a,10-dihydroxy-1,2,5,5a,6,7-hexahydro-6,11b-(epiminoethano)naphtho[1,2-d]azepin-3(4H)-yl)-2-(pyrimidin-2-yl)ethan-1-one] | 3.9 mL/min/kg |
| Cc1cnn(CCN2CC[C@]34CCN[C@H](Cc5ccc(O)cc53)[C@]4(O)CC2)c1 [Example 176, (5aS,6R,11bR)-3-(2-(4-methyl-1H-pyrazol-1-yl)ethyl)-2,3,4,5,6,7-hexahydro-6,11b-(epiminoethano)naphtho[1,2-d]azepine-5a,10(1H)-diol] | 8.2 mL/min/kg |
| Cc1cnn(CCN2CC[C@]34CCN(CC5CC5)[C@H](Cc5cccc(O)c53)[C@]4(O)CC2)c1 [Example 277, (5aS,6R,11bS)-14-(cyclopropylmethyl)-3-(2-(4-methyl-1H-pyrazol-1-yl)ethyl)-2,3,4,5,6,7-hexahydro-6,11b-(epiminoethano)naphtho[1,2-d]azepine-5a,11(1H)-diol] | 6.4 mL/min/kg |
| Cc1cnn(CCN2CC[C@]34CCN(CC5CC5)[C@H](Cc5cc(C(N)=O)c(O)cc53)[C@]4(O)CC2)c1 [Example 295, (5aS,6R,11bS)-14-(cyclopropylmethyl)-5a,10-dihydroxy-3-(2-(4-methyl-1H-pyrazol-1-yl)ethyl)-1,2,3,4,5,5a,6,7-octahydro-6,11b-(epiminoethano)naphtho[1,2-d]azepine-9-carboxamide] | 17.2 mL/min/kg |
| NC(=O)c1ccc2c(c1O)[C@@]13CCN(C(=O)Cc4ccccn4)CC[C@@]1(O)[C@@H](C2)N(CC1CC1)CC3 [Example 353, (5aS,6R,11bR)-14-(cyclopropylmethyl)-5a,11-dihydroxy-3-(2-(pyridin-2-yl)acetyl)-1,2,3,4,5,5a,6,7-octahydro-6,11b-(epiminoethano)naphtho[1,2-d]azepine-10-carboxamide] | 7.9 mL/min/kg |
| O=C(Cc1ccccn1)N1CC[C@]23CCN(CC4CC4)[C@H](Cc4cc(C(F)(F)F)c(O)cc42)[C@]3(O)CC1 [Example 320, 1-((5aS,6R,11bR)-14-(cyclopropylmethyl)-5a,10-dihydroxy-9-(trifluoromethyl)-1,2,5,5a,6,7-hexahydro-6,11b-(epiminoethano)naphtho[1,2-d]azepin-3(4H)-yl)-2-(pyridin-2-yl)ethan-1-one] | 22.9 mL/min/kg |
| Cc1cc2c(cc1O)[C@@]13CCN(C(=O)Cc4cccc(C(F)(F)F)n4)CC[C@@]1(O)[C@@H](C2)N(CC1CC1)CC3 [Example 322, 1-((5aS,6R,11bR)-14-(cyclopropylmethyl)-5a,10-dihydroxy-9-methyl-1,2,5,5a,6,7-hexahydro-6,11b-(epiminoethano)naphtho[1,2-d]azepin-3(4H)-yl)-2-(6-(trifluoromethyl)pyridin-2-yl)ethan-1-one] | 6.6 mL/min/kg |
| O=C(Cc1ncccn1)N1CCC[C@@]2(O)[C@H]3Cc4ccc(O)cc4[C@@]2(CCN3CC2CC2)C1 [Example 139, 1-((5aS,6R,11bS)-14-(cyclopropylmethyl)-5a,10-dihydroxy-3,4,5,5a,6,7-hexahydro-6,11b-(epiminoethano)naphtho[1,2-c]azepin-2(1H)-yl)-2-(pyrimidin-2-yl)ethan-1-one] | 29.7 mL/min/kg |

biological target: T1, human κ opioid receptors (Homo sapiens, UniProt P41145); assay: Opioid receptor function test (Lance Ultra cAMP kit, agonist activity); format: cell-based; conditions: CHO cells expressing human κ opioid receptors, 10 μM forskolin, 30 minutes
T1 construct: host or cells: CHO cells
Summary of the method: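 CHO cells expressing human κ opioid receptor incubated 30 min with test compound (10^−14 to 10^−7 M) and 10 μM forskolin in HSS/5 mM HEPES pH 7.4 with 0.5 mM IBMX and 0.1% SA. cAMP measured by TR-FRET (Lance Ultra) 1 h after detection reagent addition.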

T1 sequence (P41145 whole entry): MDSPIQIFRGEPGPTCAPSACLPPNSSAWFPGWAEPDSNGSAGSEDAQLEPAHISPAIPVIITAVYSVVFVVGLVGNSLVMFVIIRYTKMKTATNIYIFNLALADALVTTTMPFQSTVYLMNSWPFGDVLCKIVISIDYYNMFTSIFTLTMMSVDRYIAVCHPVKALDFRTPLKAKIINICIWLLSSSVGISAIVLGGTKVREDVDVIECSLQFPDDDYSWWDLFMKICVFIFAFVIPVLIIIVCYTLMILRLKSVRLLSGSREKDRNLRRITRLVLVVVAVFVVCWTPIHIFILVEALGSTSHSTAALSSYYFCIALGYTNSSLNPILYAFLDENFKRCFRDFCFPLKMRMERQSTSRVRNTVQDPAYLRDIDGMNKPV

| SMILES | EC50 |
| --- | --- |
| N#Cc1cnn(CCN2CC[C@]34CCN(CC5CC5)[C@H](Cc5ccc(O)cc53)[C@]4(O)CC2)c1 [Example 189, 1-(2-((5aS,6R,11bS)-14-(cyclopropylmethyl)-5a,10-dihydroxy-1,2,5,5a,6,7-hexahydro-6,11b-(epiminoethano)naphtho[1,2-d]azepin-3(4H)-yl)ethyl)-1H-pyrazole-4-carbonitrile] | 0.39 nM |
| CC1(C)C[C@@]2(O)[C@H]3Cc4ccc(O)cc4[C@@]2(CCN3CC2CC2)CCN1C(=O)Cc1ccccn1 [Example 343, 1-((5aS,6R,11bR)-14-(cyclopropylmethyl)-5a,10-dihydroxy-4,4-dimethyl-1,2,5,5a,6,7-hexahydro-6,11b-(epiminoethano)naphtho[1,2-d]azepin-3(4H)-yl)-2-(pyridin-2-yl)ethan-1-one] | 0.56 nM |
| Cc1cnn(CCN2CC[C@]34CCN(CC5CC5)[C@H](Cc5ccc(O)cc53)[C@]4(O)CC2C)c1 (stereo partly drawn) [Example 274, (5aS,6R,11bS)-14-(cyclopropylmethyl)-4-methyl-3-(2-(4-methyl-1H-pyrazol-1-yl)ethyl)-2,3,4,5,6,7-hexahydro-6,11b-(epiminoethano)naphtho[1,2-d]azepine-5a,10(1H)-diol] | 0.07 nM |
| CCCN1CC[C@]23CCN(CCc4ccccn4)CC[C@@]2(O)[C@H]1Cc1ccc(O)cc13 [Example 159, (5aS,6R,11bS)-14-propyl-3-(2-(pyridin-2-yl)ethyl)-2,3,4,5,6,7-hexahydro-6,11b-(epiminoethano)naphtho[1,2-d]azepine-5a,10(1H)-diol] | 0.77 nM |
| Oc1ccc2c(c1)[C@@]13CCN(CCc4ccco4)CC[C@@]1(O)[C@@H](C2)N(CC1CC1)CC3 [Example 32, (5aS,6R,11bS)-14-(cyclopropylmethyl)-3-(2-(furan-2-yl)ethyl)-2,3,4,5,6,7-hexahydro-6,11b-(epiminoethano)naphtho[1,2-d]azepine-5a,10(1H)-diol] | 0.13 nM |
| CN(C)CCC(=O)N1CC[C@]23CCN(CC4CC4)[C@H](Cc4ccc(O)cc42)[C@]3(O)CC1 [Example 186, 1-((5aS,6R,11bR)-14-(cyclopropylmethyl)-5a,10-dihydroxy-1,2,5,5a,6,7-hexahydro-6,11b-(epiminoethano)naphtho[1,2-d]azepin-3(4H)-yl)-3-(dimethylamino)propan-1-one] | 0.99 nM |
| Oc1ccc2c(c1)[C@@]13CCN(CCCn4cc(C(F)(F)F)cn4)CC[C@@]1(O)[C@@H](C2)N(CC1CC1)CC3 [Example 179, (5aS,6R,11bS)-14-(cyclopropylmethyl)-3-(3-(4-(trifluoromethyl)-1H-pyrazol-1-yl)propyl)-2,3,4,5,6,7-hexahydro-6,11b-(epiminoethano)naphtho[1,2-d]azepine-5a,10(1H)-diol] | 0.024 nM |
| CCc1cc(CC(=O)N2CC[C@]34CCN(CC5CC5)[C@H](Cc5ccc(O)cc53)[C@]4(O)CC2)no1 [Example 191, 1-((5aS,6R,11bR)-14-(cyclopropylmethyl)-5a,10-dihydroxy-1,2,5,5a,6,7-hexahydro-6,11b-(epiminoethano)naphtho[1,2-d]azepin-3(4H)-yl)-2-(5-ethylisoxazol-3-yl)ethan-1-one] | 0.48 nM |
| O=C(Cn1cc(C(F)(F)F)cn1)N1CC[C@]23CCN(CC4CC4)[C@H](Cc4ccc(O)cc42)[C@]3(O)CC1 [Example 143, 1-((5aS,6R,11bR)-14-(cyclopropylmethyl)-5a,10-dihydroxy-1,2,5,5a,6,7-hexahydro-6,11b-(epiminoethano)naphtho[1,2-d]azepin-3(4H)-yl)-2-(4-(trifluoromethyl)-1H-pyrazol-1-yl)ethan-1-one] | 0.033 nM |
| Oc1ccc2c(c1)[C@]13CCN(CC4CC4)[C@H](C2)[C@]1(O)CCCN(CCc1ccccn1)C3 [Example 137, (5aS,6R,11bS)-14-(cyclopropylmethyl)-2-(2-(pyridin-2-yl)ethyl)-2,3,4,5,6,7-hexahydro-6,11b-(epiminoethano)naphtho[1,2-c]azepine-5a,10(1H)-diol] | 0.14 nM |
| O=C(Cc1cc2ccccn2n1)N1CC[C@]23CCN(CC4CC4)[C@H](Cc4ccc(O)cc42)[C@]3(O)CC1 [Example 117, 1-((5aS,6R,11bR)-14-(cyclopropylmethyl)-5a,10-dihydroxy-1,2,5,5a,6,7-hexahydro-6,11b-(epiminoethano)naphtho[1,2-d]azepin-3(4H)-yl)-2-(pyrazolo[1,5-a]pyridin-2-yl)ethan-1-one] | 0.4 nM |
| Oc1ccc2c(c1)[C@@]13CCN(CCc4cnccn4)CC[C@@]1(O)[C@@H](C2)N(CC1CC1)CC3 [Example 84, (5aS,6R,11bS)-14-(cyclopropylmethyl)-3-(2-(pyrazin-2-yl)ethyl)-2,3,4,5,6,7-hexahydro-6,11b-(epiminoethano)naphtho[1,2-d]azepine-5a,10(1H)-diol] | 0.47 nM |
| O=C(CCc1ccccn1)N1CC[C@]23CCN(CC4CC4)[C@H](Cc4ccc(O)cc42)[C@]3(O)CC1 [Example 190, 1-((5aS,6R,11bR)-14-(cyclopropylmethyl)-5a,10-dihydroxy-1,2,5,5a,6,7-hexahydro-6,11b-(epiminoethano)naphtho[1,2-d]azepin-3(4H)-yl)-3-(pyridin-2-yl)propan-1-one] | 0.32 nM |
| Oc1ccc2c(c1)[C@@]13CCN(CCn4cc(C5CC5)cn4)CC[C@@]1(O)[C@@H](C2)N(CC1CC1)CC3 [Example 183, (5aS,6R,11bS)-3-(2-(4-cyclopropyl-1H-pyrazol-1-yl)ethyl)-14-(cyclopropylmethyl)-2,3,4,5,6,7-hexahydro-6,11b-(epiminoethano)naphtho[1,2-d]azepine-5a,10(1H)-diol] | 0.03 nM |
| O=C(Cc1cn2ccccc2n1)N1CC[C@]23CCN(CC4CC4)[C@H](Cc4ccc(O)cc42)[C@]3(O)CC1 [Example 115, 1-((5aS,6R,11bR)-14-(cyclopropylmethyl)-5a,10-dihydroxy-1,2,5,5a,6,7-hexahydro-6,11b-(epiminoethano)naphtho[1,2-d]azepin-3(4H)-yl)-2-(imidazo[1,2-a]pyridin-2-yl)ethan-1-one] | 0.15 nM |
